Measured values published in patent publication US20090084166A1, “Sensors comprising a chelated metal ion linker layer” (priority 2007, published 2009).

Tests used:
[1] = target: carbonic anhydrase II (CAII) (Homo sapiens, UniProt P00918); assay: SPR biomolecular interaction assay of CBS with immobilized CAII; format: binding; details: CBS 40 μM to 80 nM in phosphate-buffered saline, run over CAII surface
Source text: During use, light source 142 directs a light beam 150 toward prism 120 by way of suitable optics. Light beam 150 passes into and through light-transmissive support 105 and reflects off metal layer 107. Reflected light 152 is received by optical detector 144. Optical detector 144 passes a corresponding signal to the detection circuitry 146. The ligand 102 is contacted with sample and may bind to analytes in the sample. Binding of analyte and ligand 102 causes a change in a property of the reflected light 152 that can be detected by optical detection system 130. Upon detection of the change in a property of the reflected light 152, the detection system may produce a sample-responsive signal. The resultant sample responsive signal may then be employed to assess the presence of analyte in the sample. In certain embodiments, the sample-responsive signal is in the form of a “sensorgram.” A sensorgram is a plot of response (measured in “resonance units” or “RU”) as a function of time. An increase of RU corresponds to an increase of mass on the sensor surface. […]
The ligand, (CAII) is immobilized on the surface layer as stated above in “ligand attachment”. […] Binding curves are produced of the analyte interaction with the enzyme and binding rates are calculated.

[2] = Non-specific binding test of CAII on the sensor surface without EDC/NHS activation; details: CAII flowed over surface 101 without prior activation with EDC/NHS
Source text: Present on the activated dielectric surface 110 is a chelated metal ion linking layer 104. […] (RU stands for resonance unit and is directly proportional to the concentration of biomolecules on a surface. 1 RU is ca. 1 pg/mm^2.)
To test for non-specific binding, a ligand (CAII) was flowed over surface 101 through chamber 136 in the same manner as above but without any prior activation with EDC/NHS.

## carboxybenzenesulfonamide [CBS]
[1]
  Response units (binding to immobilized CAII): proportional to the concentration of the analyte and are cleanly seen above the baseline

## carbonic anhydrase II [CAII]
[2]
  non-specific binding: ca. 10 RU
